The text below walks through data of ChEMBL document CHEMBL2406958, “Development of a chimeric c-Src kinase and HDAC inhibitor” (ACS Med Chem Lett, 2013).

The target of data set [1] is T1, Histone deacetylase 1 (Homo sapiens, UniProt Q13547). Kind of data set: Inhibition of HDAC1 (unknown origin) by Fluor de Lys based assay.
Another data set relates to HMEC. Briefly: Cytotoxicity against human HMEC after 72 hrs by WST1 assay. In kind it is cell-based. A general note: Tetrazolium dyes change colour on reduction, which living cells bring about.
For a further data set, the system named is SK-BR-3. Kind of data set: Cytotoxicity against human SK-BR-3 cells after 72 hrs by WST1 assay. In kind it is functional.
A short description of data set [2]: Therapeutic index, ratio of GI50 for human HMEC to GI50 for human SK-BR-3 cells. Particulars: HMEC cells versus SK-BR-3 cells, read-out: RatioGI50.
The target in data set [3] is T2, Proto-oncogene tyrosine-protein kinase Src (Homo sapiens, UniProt P12931). Briefly: Inhibition of c-Src (unknown origin) by fluorescence assay.
A further data set concerns the target Histone deacetylase 5 (Homo sapiens, UniProt Q9UQL6). Briefly: Inhibition of HDAC5 (unknown origin) using Boc-Lys(trifluoroacetyl)-AMC as substrate by fluorescence assay.
Data set [4] concerns the target Protein deacetylase HDAC6 (Homo sapiens, UniProt Q9UBN7). Kind of data set: Inhibition of HDAC6 (unknown origin) using fluorogenic peptide from p53 residues (379 to 382) (RHKK(Ac)) as substrate by fluorescence assay.
Another data set concerns SW-620. Kind of data set: Cytotoxicity against human SW620 cells after 48 hrs by SRB assay. In kind it is functional. The conditions noted are these: SW-620, 48 h. A general note: The SRB assay estimates cell density from bound dye.
The test system of the next data set is KM12. Briefly: Cytotoxicity against human KM12 cells after 48 hrs by SRB assay. In kind it is functional. The conditions noted are these: KM12, 48 h.
A further data set deals with Malme-3M. Kind of data set: Cytotoxicity against human MALME-3M cells after 48 hrs by SRB assay. In kind it is functional.
In the next data set the test system is HCT-116. Briefly: Cytotoxicity against human HCT116 cells after 48 hrs by SRB assay. Format: functional. Particulars: HCT-116, 48 h.
The next data set concerns Hs-578T. Kind of data set: Cytotoxicity against human Hs578T cells after 48 hrs by SRB assay. Format: functional.
Another data set concerns the target Histone deacetylase 11 (Homo sapiens, UniProt Q96DB2). Kind of data set: Inhibition of HDAC11 (unknown origin) using fluorogenic peptide from p53 residues (379 to 382) (RHKK(Ac)) as substrate by fluorescence assay.
The target of a further data set is Histone deacetylase 3 (Homo sapiens, UniProt O15379). Briefly: Inhibition of HDAC3 (unknown origin) using fluorogenic peptide from p53 residues (379 to 382) (RHKK(Ac)) as substrate by fluorescence assay.
For data set [5], the target named is T2, Proto-oncogene tyrosine-protein kinase Src. Briefly: Inhibition of c-Src (unknown origin) after 10 mins by fluorimetric assay.
The subject of a further data set is U-251. Briefly: Cytotoxicity against human U251 cells after 48 hrs by SRB assay. Format: functional. The conditions noted are these: U-251, 48 h.
Data set [6] concerns the target T1, Histone deacetylase 1. Briefly: Inhibition of HDAC1 (unknown origin) using fluorogenic peptide from p53 residues (379 to 382) (RHKK(Ac)) as substrate by fluorescence assay.
Another data set addresses Histone deacetylase 4 (Homo sapiens, UniProt P56524). Kind of data set: Inhibition of HDAC4 (unknown origin) using Boc-Lys(trifluoroacetyl)-AMC as substrate by fluorescence assay.
A further data set relates to MCF7. Briefly: Cytotoxicity against human MCF7 cells after 48 hrs by SRB assay. In kind it is functional. The conditions noted are these: MCF7, 48 h.
For data set [7], the target named is Tyrosine-protein kinase HCK (Homo sapiens, UniProt P08631). Kind of data set: Inhibition of HCK (unknown origin).
Another data set relates to MDA-MB-231. Kind of data set: Cytotoxicity against human MDA-MB-231 cells after 48 hrs by SRB assay. The conditions noted are these: MDA-MB-231, 48 h. In kind it is functional.
The nature of data set [8]: Cytotoxicity against human NCI60 cells after 48 hrs by SRB assay. Format: functional. The conditions noted are these: NCI60, 48 h.
For data set [9], the target named is Polyamine deacetylase HDAC10 (Homo sapiens, UniProt Q969S8). Briefly: Inhibition of HDAC10 (unknown origin) using fluorogenic peptide from p53 residues (379 to 382) (RHKK(Ac)) as substrate by fluorescence assay.
The next data set addresses Histone deacetylase 9 (Homo sapiens, UniProt Q9UKV0). Kind of data set: Inhibition of HDAC9 (unknown origin) using Boc-Lys(trifluoroacetyl)-AMC as substrate by fluorescence assay.
The target in another data set is Histone deacetylase 2 (Homo sapiens, UniProt Q92769).
The target in a further data set is Histone deacetylase 8 (Homo sapiens, UniProt Q9BY41). Briefly: Inhibition of HDAC8 (unknown origin) using fluorogenic peptide from p53 residues (379 to 382) (RHK(Ac)K(Ac)) as substrate by fluorescence assay.
Data set [10] concerns the target Tyrosine-protein kinase ABL1 (Homo sapiens, UniProt P00519). Briefly: Inhibition of c-Abl (unknown origin).
The subject of a further data set is DU-145. Kind of data set: Cytotoxicity against human DU145 cells after 48 hrs by SRB assay. Format: functional. Particulars: DU-145, 48 h.
In data set [11] the target is T1, Histone deacetylase 1. Kind of data set: Inhibition of human recombinant HDAC1 using Ac-Leu-Gly-Lys(Ac)AMCA as substrate after 30 mins by fluorescence assay.

pIC50, pKi: −log10 of the molar value.

T2 sequence (P12931 2-536 limits assumed): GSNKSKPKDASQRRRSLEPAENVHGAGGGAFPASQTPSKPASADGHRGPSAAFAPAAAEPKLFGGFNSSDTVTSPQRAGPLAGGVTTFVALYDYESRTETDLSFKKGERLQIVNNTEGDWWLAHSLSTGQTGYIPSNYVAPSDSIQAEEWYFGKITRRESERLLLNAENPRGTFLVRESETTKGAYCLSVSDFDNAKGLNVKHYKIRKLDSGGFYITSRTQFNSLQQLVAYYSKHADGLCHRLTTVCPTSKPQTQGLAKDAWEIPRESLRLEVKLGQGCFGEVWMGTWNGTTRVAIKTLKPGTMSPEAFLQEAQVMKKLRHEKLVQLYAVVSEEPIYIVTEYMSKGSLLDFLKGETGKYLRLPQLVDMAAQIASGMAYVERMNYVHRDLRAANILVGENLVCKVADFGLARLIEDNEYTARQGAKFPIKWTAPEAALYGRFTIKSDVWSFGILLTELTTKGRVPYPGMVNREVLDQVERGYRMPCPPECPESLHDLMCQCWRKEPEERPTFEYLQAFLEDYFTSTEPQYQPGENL
T1 sequence (Q13547 whole entry): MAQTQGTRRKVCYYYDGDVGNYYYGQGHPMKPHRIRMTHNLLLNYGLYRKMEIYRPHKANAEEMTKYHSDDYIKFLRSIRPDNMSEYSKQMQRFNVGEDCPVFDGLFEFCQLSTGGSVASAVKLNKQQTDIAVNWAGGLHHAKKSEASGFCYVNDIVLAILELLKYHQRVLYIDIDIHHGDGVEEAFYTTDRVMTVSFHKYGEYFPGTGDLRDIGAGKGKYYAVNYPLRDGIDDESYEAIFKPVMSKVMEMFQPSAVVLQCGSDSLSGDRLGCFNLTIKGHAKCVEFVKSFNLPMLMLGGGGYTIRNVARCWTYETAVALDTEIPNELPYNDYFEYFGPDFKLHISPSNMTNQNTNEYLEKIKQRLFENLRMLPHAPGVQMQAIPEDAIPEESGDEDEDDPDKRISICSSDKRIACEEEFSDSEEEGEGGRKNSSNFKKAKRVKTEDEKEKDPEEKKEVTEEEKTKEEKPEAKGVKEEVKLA
Chain of Polyamine deacetylase HDAC10 (Q969S8 whole entry, the tested form may be a part): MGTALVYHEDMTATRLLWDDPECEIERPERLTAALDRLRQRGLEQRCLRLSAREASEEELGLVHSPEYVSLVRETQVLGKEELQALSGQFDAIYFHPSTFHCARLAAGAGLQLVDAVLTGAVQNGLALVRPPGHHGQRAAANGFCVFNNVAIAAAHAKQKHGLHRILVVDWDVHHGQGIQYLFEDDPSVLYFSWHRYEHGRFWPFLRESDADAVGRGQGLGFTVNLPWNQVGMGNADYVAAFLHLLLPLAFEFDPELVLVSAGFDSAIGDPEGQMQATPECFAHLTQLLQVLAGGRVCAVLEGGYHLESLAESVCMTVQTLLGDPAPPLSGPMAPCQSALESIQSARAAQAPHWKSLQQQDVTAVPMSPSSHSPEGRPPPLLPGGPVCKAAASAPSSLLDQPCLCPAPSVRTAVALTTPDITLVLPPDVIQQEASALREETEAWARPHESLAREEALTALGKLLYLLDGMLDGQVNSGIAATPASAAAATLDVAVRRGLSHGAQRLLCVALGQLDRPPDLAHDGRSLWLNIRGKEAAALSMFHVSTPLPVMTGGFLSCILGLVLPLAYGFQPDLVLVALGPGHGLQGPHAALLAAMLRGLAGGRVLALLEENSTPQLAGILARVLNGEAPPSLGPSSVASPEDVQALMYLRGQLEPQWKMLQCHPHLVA
Chain of Tyrosine-protein kinase HCK (P08631 whole entry): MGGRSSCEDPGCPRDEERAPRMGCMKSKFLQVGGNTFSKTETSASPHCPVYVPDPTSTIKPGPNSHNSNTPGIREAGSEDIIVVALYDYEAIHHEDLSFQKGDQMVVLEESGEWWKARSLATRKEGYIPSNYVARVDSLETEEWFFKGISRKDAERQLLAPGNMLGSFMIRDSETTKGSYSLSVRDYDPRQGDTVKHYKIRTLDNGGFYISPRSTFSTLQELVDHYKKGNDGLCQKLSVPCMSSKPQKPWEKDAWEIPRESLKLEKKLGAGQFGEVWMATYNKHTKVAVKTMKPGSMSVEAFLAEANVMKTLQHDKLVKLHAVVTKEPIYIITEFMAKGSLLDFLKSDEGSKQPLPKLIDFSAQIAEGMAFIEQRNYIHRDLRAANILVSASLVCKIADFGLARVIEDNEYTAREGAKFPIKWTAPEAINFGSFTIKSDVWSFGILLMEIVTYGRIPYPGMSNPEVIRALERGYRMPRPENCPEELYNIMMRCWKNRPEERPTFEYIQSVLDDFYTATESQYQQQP
Chain of Histone deacetylase 5 (Q9UQL6 whole entry, the tested form may be a part): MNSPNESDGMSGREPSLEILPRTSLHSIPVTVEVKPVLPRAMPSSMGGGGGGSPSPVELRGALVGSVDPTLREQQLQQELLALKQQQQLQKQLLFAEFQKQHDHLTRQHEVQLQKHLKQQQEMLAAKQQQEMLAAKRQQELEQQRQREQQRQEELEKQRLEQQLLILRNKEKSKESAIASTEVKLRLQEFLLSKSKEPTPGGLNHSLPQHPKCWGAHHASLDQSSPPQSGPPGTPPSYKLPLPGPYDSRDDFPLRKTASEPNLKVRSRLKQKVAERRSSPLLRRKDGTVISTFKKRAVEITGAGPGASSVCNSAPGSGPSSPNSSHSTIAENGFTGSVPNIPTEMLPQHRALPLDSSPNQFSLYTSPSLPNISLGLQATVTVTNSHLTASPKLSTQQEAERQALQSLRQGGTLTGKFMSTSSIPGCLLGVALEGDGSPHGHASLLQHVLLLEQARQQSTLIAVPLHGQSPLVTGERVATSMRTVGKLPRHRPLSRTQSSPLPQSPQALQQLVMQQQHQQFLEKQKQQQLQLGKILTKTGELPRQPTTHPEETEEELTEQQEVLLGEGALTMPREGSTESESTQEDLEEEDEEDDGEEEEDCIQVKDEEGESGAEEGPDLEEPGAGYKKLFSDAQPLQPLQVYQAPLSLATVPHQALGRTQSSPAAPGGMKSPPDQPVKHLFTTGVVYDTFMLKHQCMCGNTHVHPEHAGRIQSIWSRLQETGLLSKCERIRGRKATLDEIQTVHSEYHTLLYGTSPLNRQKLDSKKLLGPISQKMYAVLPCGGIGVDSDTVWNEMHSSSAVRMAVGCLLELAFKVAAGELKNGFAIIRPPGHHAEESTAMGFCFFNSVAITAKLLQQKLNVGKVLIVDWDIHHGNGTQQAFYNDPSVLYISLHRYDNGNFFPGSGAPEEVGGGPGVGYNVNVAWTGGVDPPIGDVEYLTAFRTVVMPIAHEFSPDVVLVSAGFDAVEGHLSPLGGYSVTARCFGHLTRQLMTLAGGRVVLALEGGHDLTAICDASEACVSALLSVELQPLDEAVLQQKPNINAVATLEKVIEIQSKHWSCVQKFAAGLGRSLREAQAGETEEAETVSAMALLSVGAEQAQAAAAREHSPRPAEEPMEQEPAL
Chain of Histone deacetylase 4 (P56524 whole entry): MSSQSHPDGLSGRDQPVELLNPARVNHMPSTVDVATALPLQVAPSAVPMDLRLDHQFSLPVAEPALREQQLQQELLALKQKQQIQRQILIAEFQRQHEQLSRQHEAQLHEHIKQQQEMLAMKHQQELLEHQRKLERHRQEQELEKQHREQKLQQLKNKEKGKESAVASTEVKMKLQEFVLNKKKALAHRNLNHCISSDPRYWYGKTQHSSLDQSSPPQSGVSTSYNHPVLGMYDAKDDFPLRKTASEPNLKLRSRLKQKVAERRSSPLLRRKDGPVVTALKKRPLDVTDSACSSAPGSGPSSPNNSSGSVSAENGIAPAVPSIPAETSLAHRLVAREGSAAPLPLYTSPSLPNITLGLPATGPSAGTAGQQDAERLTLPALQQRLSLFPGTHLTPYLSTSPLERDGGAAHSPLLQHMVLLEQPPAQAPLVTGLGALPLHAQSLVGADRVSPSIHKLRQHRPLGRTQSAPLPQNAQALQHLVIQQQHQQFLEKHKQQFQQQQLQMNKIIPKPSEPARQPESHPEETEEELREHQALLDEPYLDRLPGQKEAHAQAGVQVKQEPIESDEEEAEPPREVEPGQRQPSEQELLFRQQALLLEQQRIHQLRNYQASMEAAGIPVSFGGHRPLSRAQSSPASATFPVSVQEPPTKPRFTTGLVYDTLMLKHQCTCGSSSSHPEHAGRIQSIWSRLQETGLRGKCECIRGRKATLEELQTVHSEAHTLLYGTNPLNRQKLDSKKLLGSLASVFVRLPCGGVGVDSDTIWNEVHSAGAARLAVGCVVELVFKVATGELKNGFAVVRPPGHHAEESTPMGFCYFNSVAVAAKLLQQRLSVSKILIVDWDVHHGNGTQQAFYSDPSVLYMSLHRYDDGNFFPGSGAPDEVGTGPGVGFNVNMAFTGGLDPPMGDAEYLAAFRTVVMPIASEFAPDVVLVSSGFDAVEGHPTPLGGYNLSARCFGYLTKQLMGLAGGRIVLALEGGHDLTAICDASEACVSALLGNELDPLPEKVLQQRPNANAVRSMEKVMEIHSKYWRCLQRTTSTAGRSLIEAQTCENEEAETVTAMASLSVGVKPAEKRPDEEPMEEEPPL
Chain of Histone deacetylase 3 (O15379 whole entry, the tested form may be a part): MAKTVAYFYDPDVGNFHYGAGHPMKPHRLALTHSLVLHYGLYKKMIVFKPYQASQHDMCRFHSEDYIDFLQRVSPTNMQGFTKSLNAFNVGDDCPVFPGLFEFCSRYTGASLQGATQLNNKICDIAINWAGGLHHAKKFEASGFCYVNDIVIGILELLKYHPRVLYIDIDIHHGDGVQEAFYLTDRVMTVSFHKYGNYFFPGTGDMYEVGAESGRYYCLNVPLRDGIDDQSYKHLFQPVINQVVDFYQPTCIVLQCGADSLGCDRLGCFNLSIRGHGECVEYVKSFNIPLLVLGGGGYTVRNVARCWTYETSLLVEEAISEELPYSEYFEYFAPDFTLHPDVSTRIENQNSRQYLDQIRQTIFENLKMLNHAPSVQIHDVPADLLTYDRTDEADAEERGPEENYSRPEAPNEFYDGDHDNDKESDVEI

Consider `O=C(CCCCCn1nncc1-c1ccccc1)NO`, for which the pKi on Histone deacetylase 1 [1] was 7.35.

For the compound `Nc1ncnc2c1c(-c1ccc(Cl)cc1)nn2-c1cccc(-c2cnnn2Cc2cccc(-c3ccccc3)c2)c1`, the GI50 in the data set on HMEC worked out at 4300 nM; in the data set with SK-BR-3 (Homo sapiens, SK-BR-3, 72 h), 4800 nM. Also, the selectivity ratio in data set [2] worked out at 0.9.

Regarding `Nc1ncnc2c1c(-c1ccc(Cl)cc1)nn2-c1cccc(-c2cn(CCCCCC(=O)NO)nn2)c1`, the pKi was 6.43 in [3] and 9.21 on Histone deacetylase 1 [1].

Regarding `Nc1ncnc2c1c(-c1ccc(Cl)cc1)nn2-c1cccc(-c2cnnn2CCCCCC(=O)NO)c1`, the pKi is 6.86 in [3]; 6.86 in [5]; 6.30 in data set [7]; 5.63 in data set [10]; 9.59 on Histone deacetylase 1 [1]; 9.59 at Histone deacetylase 1 [11]. Also, the pIC50 is 5.41 on Histone deacetylase 5; 8.57 in data set [4]; 6.65 against Histone deacetylase 11; 7.72 against Histone deacetylase 3; 7.07 on Histone deacetylase 1 [6]; 5.40 against Histone deacetylase 4. For the same compound, the negative-log IC50 (pIC50) in [9] is 7.29; at Histone deacetylase 9, 4.55; against Histone deacetylase 2, 6.64; against Histone deacetylase 8, 5.64. Moreover, the GI50 in the data set with SW-620 stood at 250 nM; in the data set with KM12, 470 nM; in the data set with Malme-3M, 70 nM; in the data set on HCT-116, 220 nM; in the data set with Hs-578T, 170 nM; in the data set with U-251, 280 nM. The GI50 with HMEC is 4700 nM; in the data set on SK-BR-3 (Homo sapiens, SK-BR-3, 72 h), 200 nM; with MCF7, 350 nM; with MDA-MB-231 it was 390 nM; in data set [8] it was 260 nM; in the data set with DU-145, 390 nM.

Take `Nc1ncnc2c1c(-c1ccc(Cl)cc1)nn2-c1cccc(-c2cnnn2CCCCCCC(=O)NO)c1`: the pKi in [5] is 6.72; at Histone deacetylase 1 [11] it was 9.09.

Regarding `Nc1ncnc2c1c(-c1ccc(Cl)cc1)nn2-c1cccc(-c2cnnn2CCCCCCCC(=O)NO)c1`, on Histone deacetylase 1 [11], the pKi is 8.01.

For the compound `Nc1ncnc2c1c(-c1ccc(Cl)cc1)nn2-c1cccc(-c2cnnn2Cc2ccc(/C=C/C(=O)NO)cc2)c1`, the negative-log Ki (pKi) in data set [5] is 5.37; at Histone deacetylase 1 [11], 7.46.

Consider `Nc1ncnc2c1c(-c1ccc(Cl)cc1)nn2-c1cccc(-c2cnnn2Cc2cccc(/C=C/C(=O)NO)c2)c1`, for which, on Histone deacetylase 1 [11], the pKi is 7.64.

In data set [3], `Nc1ncnc2c1c(-c1ccc(Cl)cc1)nn2-c1ccccc1` showed a pKi of 6.22.

As for `Cc1nc(Nc2ncc(C(=O)Nc3c(C)cccc3Cl)s2)cc(N2CCN(CCO)CC2)n1` [DASATINIB], the GI50 in the data set on SW-620 is 8430 nM; with Malme-3M, 6610 nM; in the data set with HCT-116, 3700 nM; with Hs-578T, 30 nM; in the data set on U-251, 2810 nM; in the data set with HMEC it was 1800 nM. Moreover, the 50% growth inhibitory concentration (GI50) in the data set with MCF7 is 8320 nM; with MDA-MB-231 it was 20 nM; in [8], 5700 nM; in the data set on DU-145, 160 nM.

`O=C(CCCCCCC(=O)Nc1ccccc1)NO` [VORINOSTAT]: the 50% growth inhibitory concentration (GI50) in the data set with HMEC is 5800 nM; with SK-BR-3, 1200 nM.

Usually pKi stands for −log10 of the Ki, conventionally taken in molar units. What is called GI50 is the concentration at which growth is held to half of that of the control. The low end stands for greater sensitivity of the cells, the high end for lower sensitivity of the cells. For orientation: pIC50 means the negative decadic logarithm of the IC50, by convention in mol/L. Higher therefore signals a small IC50.
